Data taken from ChEMBL document CHEMBL1141373 (J Med Chem, 2007).
Active and inactive are the calls of the source. No cut-off for these calls is given here.

Tests used:
[1] = molecular target: T1, Glutamate receptor ionotropic, NMDA 2B (Homo sapiens, UniProt Q05586+Q13224); assay: Displacement of [3H](E)-N1-(2-methoxybenzyl)cinnamamidine from human NR2B expressed in Ltk- cells; format: cell-based
Cytochrome P450 2D6 = Cytochrome P450 2D6 (Homo sapiens, UniProt P10635); assay: Inhibition of CYP2D6 in human liver microsomes
[2] = Drug level in rat brain at 30 mg/kg, po after 1 hr; format: ADME, organism-based; set-up: dose 30 mg/kg, route oral; settings: read-out: Drug uptake
Cytochrome P450 2C9 = Cytochrome P450 2C9 (Homo sapiens, UniProt P11712)
Description: Inhibition of CYP2C9 in human liver microsomes

[3] = Plasma concentration in rat at 30 mg/kg, po after 1 hr; format: ADME, organism-based; set-up: dose 30 mg/kg, route oral
Cytochrome P450 3A4 = Cytochrome P450 3A4 (Homo sapiens, UniProt P08684); assay: Inhibition of CYP3A4 in human liver microsomes
Rattus norvegicus [4] = assay: Reversal of carrageenan-induced mechanical hyperalgesia in rat at 3 mg/kg, po in presence of morphine; format: functional, organism-based; set-up: dose 3 mg/kg
[5] = Cmax in Sprague-Dawley rat at 10 mg/kg, po; format: ADME, organism-based; set-up: dose 10 mg/kg, route oral; settings: in vivo
[6] = molecular target: Glutamate receptor ionotropic, NMDA 2A (Homo sapiens) (UniProt Q12879); assay: Activity at human NR2A expressed in Ltk- cells by patch clamp assay upto 30 uM; format: cell-based
Rattus norvegicus [7] = assay: Reversal of carrageenan-induced mechanical hyperalgesia in rat at 3 mg/kg, po in presence of indomethacin; format: functional, organism-based; set-up: dose 3 mg/kg
[8] = Cmax in Beagle dog at 1 mg/kg, po; format: ADME, organism-based, Canis lupus familiaris; set-up: dose 1 mg/kg, route oral; settings: in vivo
[9] = molecular target: Glutamate receptor ionotropic, NMDA 2C (Homo sapiens) (UniProt Q14957); assay: Activity at human NR2C expressed in Ltk- cells by patch clamp assay upto 30 uM; format: cell-based
Rattus norvegicus [10] = assay: Reversal of carrageenan-induced mechanical hyperalgesia in rat at 10 mg/kg, po after 1 hr; format: functional
[11] = molecular target: Glutamate receptor ionotropic, NMDA 2B (Rattus norvegicus) (UniProt Q00960); assay: Receptor occupancy ex vivo by displacement of [3H](E)-N1-(2-methoxybenzyl)-cinnamamidine binding from NR2B in rat brain at 10 uM; format: tissue-based
Canis familiaris [12] = assay: AUC in Beagle dog at 1 mg/kg, iv; format: ADME, organism-based, Canis lupus familiaris, Plasma; set-up: dose 1 mg/kg, route intravenous; settings: in vivo
[13] = Oral bioavailability in Sprague-Dawley rat at 10 mg/kg, po; format: ADME, organism-based; settings: in vivo
Rattus norvegicus [14] = assay: Reversal of allodynia in rat spinal nerve ligation model at 10 mg/kg, iv; format: functional, organism-based; set-up: dose 10 mg/kg
[15] = Drug level in hyperalgesic rat brain at 10 mg/kg, po after 1 hr; format: ADME, organism-based; set-up: dose 10 mg/kg, route oral; settings: read-out: Drug uptake
Ltk- = assay: Activity at human NR1a expressed in Ltk- cells by patch clamp assay upto 30 uM; format: cell-based
[16] = Half life in rhesus monkey at 1 mg/kg, iv; format: ADME, organism-based, Macaca mulatta; set-up: dose 1 mg/kg, route intravenous; settings: in vivo
[17] = molecular target: T1, Glutamate receptor ionotropic, NMDA 2B; assay: Antagonist activity at human NR2B expressed in Ltk- cells by calcium flux assay; format: functional, cell-based
[18] = Drug level in hyperalgesic rat plasma at 10 mg/kg, po after 1 hr; format: ADME, organism-based; set-up: dose 10 mg/kg, route oral
[19] = molecular target: Glutamate receptor ionotropic, NMDA 2D (Homo sapiens) (UniProt O15399); assay: Activity at human NR2D expressed in Ltk- cells by patch clamp assay upto 30 uM; format: cell-based
Rhesus monkey = assay: AUC in rhesus monkey at 1 mg/kg, iv; format: ADME, organism-based, Macaca mulatta, Plasma; set-up: dose 1 mg/kg, route intravenous; settings: in vivo
Rattus norvegicus [20] = assay: Effect on allodynia in rat spinal nerve ligation model at 30 mg/kg, po; format: functional, organism-based; set-up: dose 30 mg/kg
[21] = Drug level in hyperalgesic rat brain at 1 mg/kg, po after 15 mins; format: ADME, organism-based; set-up: dose 1 mg/kg, route oral; settings: read-out: Drug uptake
Rattus norvegicus [22] = assay: Plasma concentration in haloperidol-induced cataleptic rat at 30 mg/kg, po; format: ADME, organism-based; set-up: dose 30 mg/kg, route oral; settings: in vivo
[23] = Cmax in rhesus monkey at 1 mg/kg, po; format: ADME, organism-based, Macaca mulatta; set-up: dose 1 mg/kg, route oral; settings: in vivo
[24] = Oral bioavailability in rhesus monkey at 1 mg/kg, po; format: ADME, organism-based, Macaca mulatta; settings: in vivo
[25] = Half life in Beagle dog at 1 mg/kg, iv; format: ADME, organism-based, Canis lupus familiaris; set-up: dose 1 mg/kg, route intravenous; settings: in vivo
[26] = Half life in Sprague-Dawley rat at 2 mg/kg, iv; format: ADME, organism-based; set-up: dose 2 mg/kg, route intravenous; settings: in vivo
[27] = Oral bioavailability in Beagle dog at 1 mg/kg, po; format: ADME, organism-based, Canis lupus familiaris; settings: in vivo
[28] = Plasma protein binding in rat; format: ADME, cell-free; settings: read-out: PPB (converted)
[29] = Ratio of drug level in brain against plasma in hyperalgesic rat
Rattus norvegicus [30] = assay: AUC in Sprague-Dawley rat at 2 mg/kg, iv; format: ADME, organism-based, Plasma; set-up: dose 2 mg/kg, route intravenous; settings: in vivo
Rattus norvegicus [31] = assay: […] in rat measured as motor impairment upto 100 mg/kg, po by rotarod assay; format: functional, organism-based; set-up: dose 100 mg/kg
Rattus norvegicus [32] = assay: Reversal of allodynia in rat spinal nerve ligation model at 3 mg/kg, iv; format: functional, organism-based; set-up: dose 3 mg/kg
[33] = Drug level in hyperalgesic rat plasma at 1 mg/kg, po after 15 mins; format: ADME, organism-based; set-up: dose 1 mg/kg, route oral
Rattus norvegicus [34] = assay: Reversal of carrageenan-induced mechanical hyperalgesia in iv dosed rat after 15 mins; format: functional
[35] = molecular target: Voltage-gated inwardly rectifying potassium channel KCNH2 (Homo sapiens, UniProt Q12809)
Description: Displacement of [35S]MK-499 from hERG potassium channel expressed in HEK293 cells

[36] = molecular target: Glutamate receptor ionotropic, NMDA 2A (Homo sapiens, UniProt Q05586+Q12879); assay: Activity at human NR2A expressed in Ltk- cells by calcium flux assay; format: cell-based
Canis familiaris [37] = assay: AUC in Beagle dog at 0.5 mg/kg, iv; format: ADME, organism-based, Canis lupus familiaris, Plasma; set-up: dose 0.5 mg/kg, route intravenous; settings: in vivo
Rattus norvegicus [38] = assay: Reversal of carrageenan-induced mechanical hyperalgesia in iv dosed rat; format: functional
Homo sapiens = organism: Homo sapiens; assay: Selectivity for human NR2B over hERG
Rattus norvegicus [39] = assay: Reversal of carrageenan-induced mechanical hyperalgesia in po dosed rat; format: functional
[40] = Half life in Beagle dog at 0.5 mg/kg, iv; format: ADME, organism-based, Canis lupus familiaris; set-up: dose 0.5 mg/kg, route intravenous; settings: in vivo

Chain of Cytochrome P450 2C9 (P11712 whole entry): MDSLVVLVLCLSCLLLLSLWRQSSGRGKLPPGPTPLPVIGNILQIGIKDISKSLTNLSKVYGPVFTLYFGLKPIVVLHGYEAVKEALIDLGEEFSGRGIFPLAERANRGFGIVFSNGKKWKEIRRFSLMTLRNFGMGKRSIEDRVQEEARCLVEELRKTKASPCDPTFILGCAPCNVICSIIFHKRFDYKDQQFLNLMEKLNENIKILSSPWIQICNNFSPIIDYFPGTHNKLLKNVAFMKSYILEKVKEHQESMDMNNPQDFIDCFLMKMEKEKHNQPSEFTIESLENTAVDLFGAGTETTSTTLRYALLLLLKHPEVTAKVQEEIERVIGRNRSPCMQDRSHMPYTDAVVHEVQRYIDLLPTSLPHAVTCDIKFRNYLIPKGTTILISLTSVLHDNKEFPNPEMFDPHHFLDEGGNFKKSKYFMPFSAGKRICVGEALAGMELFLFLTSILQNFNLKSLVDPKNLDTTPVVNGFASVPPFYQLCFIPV
Chain of Cytochrome P450 2D6 (P10635 whole entry): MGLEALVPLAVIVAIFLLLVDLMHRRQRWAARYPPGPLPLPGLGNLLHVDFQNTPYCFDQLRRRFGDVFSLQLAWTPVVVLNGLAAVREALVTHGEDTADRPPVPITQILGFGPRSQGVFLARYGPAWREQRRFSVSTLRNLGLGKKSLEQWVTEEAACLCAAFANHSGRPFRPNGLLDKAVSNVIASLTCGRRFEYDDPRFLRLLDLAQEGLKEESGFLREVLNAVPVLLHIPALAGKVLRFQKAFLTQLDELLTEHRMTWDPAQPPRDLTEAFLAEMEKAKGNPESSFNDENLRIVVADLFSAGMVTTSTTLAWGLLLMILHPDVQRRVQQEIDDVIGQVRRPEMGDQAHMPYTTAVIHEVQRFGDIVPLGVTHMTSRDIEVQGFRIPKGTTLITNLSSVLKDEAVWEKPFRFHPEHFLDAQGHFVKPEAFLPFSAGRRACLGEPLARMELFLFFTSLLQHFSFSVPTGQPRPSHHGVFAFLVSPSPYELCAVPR
Chain of Cytochrome P450 3A4 (P08684 whole entry): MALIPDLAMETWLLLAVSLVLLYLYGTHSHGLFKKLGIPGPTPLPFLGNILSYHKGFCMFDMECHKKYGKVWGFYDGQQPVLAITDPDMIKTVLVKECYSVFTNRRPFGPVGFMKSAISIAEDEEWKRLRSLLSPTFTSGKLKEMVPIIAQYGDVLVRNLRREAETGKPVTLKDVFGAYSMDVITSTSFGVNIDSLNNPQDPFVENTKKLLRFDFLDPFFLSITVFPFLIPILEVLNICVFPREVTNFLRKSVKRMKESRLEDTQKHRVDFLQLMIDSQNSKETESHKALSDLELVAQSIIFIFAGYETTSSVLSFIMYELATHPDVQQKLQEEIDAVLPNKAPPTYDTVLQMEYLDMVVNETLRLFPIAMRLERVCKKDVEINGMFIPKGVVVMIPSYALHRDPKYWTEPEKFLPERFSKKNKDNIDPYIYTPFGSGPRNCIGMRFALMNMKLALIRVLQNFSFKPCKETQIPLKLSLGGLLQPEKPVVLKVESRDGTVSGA
T1 sequence (Q13224 whole entry, one chain of several): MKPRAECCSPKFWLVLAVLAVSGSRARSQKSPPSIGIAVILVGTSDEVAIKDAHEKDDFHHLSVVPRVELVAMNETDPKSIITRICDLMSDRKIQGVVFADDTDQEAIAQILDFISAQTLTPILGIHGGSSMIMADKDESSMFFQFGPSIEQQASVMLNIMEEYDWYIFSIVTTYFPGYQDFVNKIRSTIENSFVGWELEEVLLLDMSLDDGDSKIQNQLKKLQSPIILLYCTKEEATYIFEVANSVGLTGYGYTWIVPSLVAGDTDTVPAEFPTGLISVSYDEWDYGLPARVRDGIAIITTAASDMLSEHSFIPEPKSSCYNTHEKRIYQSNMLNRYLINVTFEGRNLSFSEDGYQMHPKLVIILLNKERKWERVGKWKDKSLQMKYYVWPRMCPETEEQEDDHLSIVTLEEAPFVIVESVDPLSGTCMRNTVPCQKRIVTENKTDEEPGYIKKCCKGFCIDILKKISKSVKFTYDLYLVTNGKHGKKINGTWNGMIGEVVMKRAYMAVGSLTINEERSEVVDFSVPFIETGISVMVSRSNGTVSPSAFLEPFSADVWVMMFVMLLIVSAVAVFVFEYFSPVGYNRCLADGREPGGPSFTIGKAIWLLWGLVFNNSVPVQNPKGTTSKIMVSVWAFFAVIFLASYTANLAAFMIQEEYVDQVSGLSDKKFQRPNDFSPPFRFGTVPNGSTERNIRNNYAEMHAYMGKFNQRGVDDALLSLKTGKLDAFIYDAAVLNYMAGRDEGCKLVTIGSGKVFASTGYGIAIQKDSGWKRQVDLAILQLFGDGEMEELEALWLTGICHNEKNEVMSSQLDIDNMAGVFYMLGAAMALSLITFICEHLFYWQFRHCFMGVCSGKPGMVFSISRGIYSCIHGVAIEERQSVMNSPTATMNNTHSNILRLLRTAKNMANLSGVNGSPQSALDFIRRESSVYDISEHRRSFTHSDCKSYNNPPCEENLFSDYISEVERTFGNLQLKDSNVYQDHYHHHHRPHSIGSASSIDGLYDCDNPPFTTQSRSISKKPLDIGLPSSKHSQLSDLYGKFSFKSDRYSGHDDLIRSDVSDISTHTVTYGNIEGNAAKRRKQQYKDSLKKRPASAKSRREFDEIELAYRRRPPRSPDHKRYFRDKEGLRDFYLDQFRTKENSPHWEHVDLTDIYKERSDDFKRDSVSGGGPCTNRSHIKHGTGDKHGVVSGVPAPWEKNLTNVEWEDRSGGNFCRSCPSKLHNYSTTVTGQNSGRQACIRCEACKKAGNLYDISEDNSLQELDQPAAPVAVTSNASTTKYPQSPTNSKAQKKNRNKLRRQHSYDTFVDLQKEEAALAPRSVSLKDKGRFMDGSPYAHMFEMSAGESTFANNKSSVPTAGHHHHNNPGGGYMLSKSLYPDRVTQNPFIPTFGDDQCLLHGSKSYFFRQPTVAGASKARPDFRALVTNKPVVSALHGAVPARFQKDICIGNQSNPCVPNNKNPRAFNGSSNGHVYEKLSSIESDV
Chain of Glutamate receptor ionotropic, NMDA 2A (Q12879 whole entry, one chain of several): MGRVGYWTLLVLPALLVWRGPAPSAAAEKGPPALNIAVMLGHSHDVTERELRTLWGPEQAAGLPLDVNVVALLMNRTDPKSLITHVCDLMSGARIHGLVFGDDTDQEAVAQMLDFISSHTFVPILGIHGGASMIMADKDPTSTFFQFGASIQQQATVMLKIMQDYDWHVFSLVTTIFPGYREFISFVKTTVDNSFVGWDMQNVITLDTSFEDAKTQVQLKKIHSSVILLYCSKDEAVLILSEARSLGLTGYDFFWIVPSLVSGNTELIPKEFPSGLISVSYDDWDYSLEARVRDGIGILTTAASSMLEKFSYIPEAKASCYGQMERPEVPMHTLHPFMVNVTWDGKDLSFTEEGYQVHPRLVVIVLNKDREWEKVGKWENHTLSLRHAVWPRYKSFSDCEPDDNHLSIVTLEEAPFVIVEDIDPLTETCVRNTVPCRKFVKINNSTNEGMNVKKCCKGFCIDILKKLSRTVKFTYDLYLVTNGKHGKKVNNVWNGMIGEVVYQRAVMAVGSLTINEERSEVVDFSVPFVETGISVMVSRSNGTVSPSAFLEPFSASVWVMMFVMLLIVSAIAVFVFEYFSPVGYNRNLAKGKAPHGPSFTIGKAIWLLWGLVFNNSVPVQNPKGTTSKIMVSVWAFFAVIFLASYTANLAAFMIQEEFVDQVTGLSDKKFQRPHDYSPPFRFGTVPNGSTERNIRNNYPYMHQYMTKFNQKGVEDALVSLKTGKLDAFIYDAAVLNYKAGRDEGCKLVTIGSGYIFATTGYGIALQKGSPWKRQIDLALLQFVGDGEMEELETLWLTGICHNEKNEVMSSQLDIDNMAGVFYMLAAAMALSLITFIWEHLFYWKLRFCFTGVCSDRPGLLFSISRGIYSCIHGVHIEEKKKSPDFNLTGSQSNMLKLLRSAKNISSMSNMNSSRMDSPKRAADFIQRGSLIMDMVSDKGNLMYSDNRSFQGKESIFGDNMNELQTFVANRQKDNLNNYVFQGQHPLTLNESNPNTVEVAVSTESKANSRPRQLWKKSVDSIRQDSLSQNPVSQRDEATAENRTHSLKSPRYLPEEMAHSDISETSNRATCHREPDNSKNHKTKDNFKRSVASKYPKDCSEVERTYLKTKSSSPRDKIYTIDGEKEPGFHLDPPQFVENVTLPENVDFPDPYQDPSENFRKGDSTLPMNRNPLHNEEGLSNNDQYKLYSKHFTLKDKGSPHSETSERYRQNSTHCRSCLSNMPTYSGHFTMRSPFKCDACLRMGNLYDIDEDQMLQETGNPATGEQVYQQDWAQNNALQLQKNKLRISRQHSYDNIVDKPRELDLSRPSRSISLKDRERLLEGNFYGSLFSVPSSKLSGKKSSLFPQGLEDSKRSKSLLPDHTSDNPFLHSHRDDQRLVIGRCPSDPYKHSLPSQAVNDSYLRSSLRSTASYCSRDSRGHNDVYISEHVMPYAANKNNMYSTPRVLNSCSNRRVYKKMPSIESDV

## CC(C)(C)c1ccc(COC(=O)N2CCC(CNc3ncccn3)CC2)cc1
[1]
  Ki: 720 nM

## O=C(OCc1ccccc1)N1CCC(CNc2nncs2)CC1
[1]
  Ki: 190 nM
Cytochrome P450 2D6
  IC50: > 25 µM

## Cc1ccc(COC(=O)N2CCC(CN(C)c3ncccn3)CC2)cc1
[1]
  Ki: 2100 nM

## O=C(NCc1ccccc1)N1CCC(CNc2ncccn2)CC1
[1]
  Ki: 1170 nM

## O=C(OCCc1ccccc1)N1CCC(CNc2ncccn2)CC1
[1]
  Ki: 227 nM

## Cc1ccccc1COC(=O)N1CCC(CNc2ncccn2)CC1
[1]
  Ki: 227 nM

## O=C(OCc1ccccc1)N1CCC(CNc2ncccn2)CC1
[1]
  Ki: 23 nM
[2]
  concentration at 1 h: 3100 nM
Cytochrome P450 2C9
  IC50: > 25 µM
Cytochrome P450 2D6
  IC50: > 25 µM
[3]
  concentration at 1 h: 7.2 µM
Cytochrome P450 3A4
  IC50: > 25 µM

## N#CN=C(NCc1ccccc1)NN1CCC(CNc2ncccn2)CC1
[1]
  Ki: 3100 nM

## O=C(OCc1ccccc1)N1CCC(CNc2cccnc2)CC1
[1]
  Ki: 180 nM
Cytochrome P450 2C9
  IC50: 12 µM
Cytochrome P450 2D6
  IC50: 1.7 µM
Cytochrome P450 3A4
  IC50: 9.1 µM

## O=C(OCc1ccccc1)N1CCC(CNc2ccncn2)CC1
[1]
  Ki: 75 nM
[2]
  concentration at 1 h: 700 nM
Cytochrome P450 2C9
  IC50: 0.5 µM
Cytochrome P450 2D6
  IC50: 1.3 µM
[3]
  concentration at 1 h: 1.1 µM

## O=C(OCc1ccccc1)N1CCC(CNc2cnccn2)CC1
[1]
  Ki: 14 nM
Cytochrome P450 2C9
  IC50: 12 µM
Cytochrome P450 2D6
  IC50: 1.7 µM
Cytochrome P450 3A4
  IC50: 22 µM

## COc1ccc(COC(=O)N2CCC(CNc3ncccn3)CC2)cc1
[1]
  Ki: 460 nM

## O=C(OCc1ccc(F)cc1)N1CCC(CNc2ncccn2)CC1
[1]
  Ki: 18 nM

## Cc1ccc(COC(=O)N2CCC(CNc3ncccn3)CC2)cc1
Rattus norvegicus [4]
  Activity: Active
[5]
  Cmax: 3.9 µM
[6]
  Activity: < 30%
Rattus norvegicus [7]
  Activity: Active
[8]
  Cmax: 840 nM
[9]
  Activity: < 30%
Rattus norvegicus [10]
  Activity: 50%
[11]
  Activity: Active
Canis familiaris [12]
  AUC: 7.5 µM·h
[13]
  bioavailability: 45%
Rattus norvegicus [14]
  Activity: Active
[15]
  concentration at 1 h: 850 nM
Ltk-
  Activity: < 30%
[16]
  half-life: 132 min
[1]
  Ki: 3.4 nM
[17]
  EC50: 5.6 nM
[18]
  concentration at 1 h: 1800 nM
[19]
  Activity: < 30%
Rhesus monkey
  AUC: 5.2 µM·h
Rattus norvegicus [20]
  Activity: Active
[21]
  concentration at […]: 510 nM
Rattus norvegicus [22]
  concentration: 10.2 µM
[23]
  Cmax: 600 nM
[24]
  bioavailability: 26%
[25]
  half-life: 414 min
[26]
  half-life: 162 min
[27]
  bioavailability: 24%
[28]
  fraction unbound: 0.153
[29]
  Kp: 1.4
Rattus norvegicus [30]
  AUC: 7.1 µM·h
Rattus norvegicus [31]
  Activity: inactive
Rattus norvegicus [32]
  Activity: Active
[33]
  concentration at […]: 960 nM
Rattus norvegicus [34]
  ED50: 1 mg/kg

## O=C(OCc1ccccc1)N1CCC(Cc2nc3ccccc3[nH]2)CC1
[1]
  Ki: 220 nM

## c1ccc(COc2ccc(CCNc3ccncc3)cc2)cc1
[35]
  IC50: 130 nM
[1]
  Ki: 93 nM
[17]
  IC50: 102 nM
[36]
  IC50: > 20 µM

## O=C(OC1Cc2ccccc2C1)N1CCC(CNc2ncccn2)CC1
[1]
  Ki: 23 nM

## O=C(OCc1ccccc1F)N1CCC(CNc2ncccn2)CC1
[1]
  Ki: 18 nM

## O=C(OCc1ccccc1)N1CCC(CNc2ccncc2)CC1
[5]
  Cmax: 5.2 µM
[8]
  Cmax: 50 nM
Canis familiaris [37]
  AUC: 1.7 µM·h
[13]
  bioavailability: > 100%
Rattus norvegicus [38]
  ED50: 3 mg/kg
[1]
  Ki: 10.6 nM
[2]
  concentration at 1 h: 11000 nM
[17]
  EC50: 1.6 nM
Homo sapiens
  Selectivity ratio: 90
Rattus norvegicus [39]
  ED50: 10 mg/kg
Cytochrome P450 2C9
  IC50: 6.5 µM
[36]
  EC50: > 10 µM
[26]
  half-life: 84 min
[40]
  half-life: 390 min
[27]
  bioavailability: 11%
Cytochrome P450 2D6
  IC50: 15 µM
Rattus norvegicus [30]
  AUC: 1.9 µM·h
[3]
  concentration at 1 h: 8.1 µM
Cytochrome P450 3A4
  IC50: > 25 µM

## Cc1ccc(COC(=O)N2CCC(Nc3ncccn3)CC2)cc1
[1]
  Ki: > 15000 nM

## CC(OC(=O)N1CCC(CNc2ncccn2)CC1)c1ccccc1 (racemic)
[1]
  Ki: 540 nM

## Cc1ccc(COC(=O)N2CCC(COc3ncccn3)CC2)cc1
[1]
  Ki: 7400 nM

## O=C(CCc1ccccc1)N1CCC(CNc2ncccn2)CC1
[1]
  Ki: 310 nM

## c1ccc(CCCN2CCC(CNc3ncccn3)CC2)cc1
[1]
  Ki: 266 nM

## O=C(OCc1ccccc1)N1CCC(CNc2nccs2)CC1
[1]
  Ki: 122 nM
Cytochrome P450 2C9
  IC50: > 10 µM
Cytochrome P450 2D6
  IC50: > 10 µM
Cytochrome P450 3A4
  IC50: > 10 µM

## CCc1ccc(COC(=O)N2CCC(CNc3ncccn3)CC2)cc1
[1]
  Ki: 3.7 nM

## Cc1cccc(COC(=O)N2CCC(CNc3ncccn3)CC2)c1
[1]
  Ki: 206 nM

## CC(C)c1ccc(COC(=O)N2CCC(CNc3ncccn3)CC2)cc1
[1]
  Ki: 7.8 nM

## O=C(OCc1ccccc1)N1CCC(CNc2ccccn2)CC1
[1]
  Ki: 37 nM
[2]
  concentration at 1 h: 170 nM
Cytochrome P450 2C9
  IC50: > 25 µM
Cytochrome P450 2D6
  IC50: > 25 µM
[3]
  concentration at 1 h: 0.18 µM
Cytochrome P450 3A4
  IC50: > 25 µM

## O=C(OCc1cccc(F)c1)N1CCC(CNc2ncccn2)CC1
[1]
  Ki: 150 nM
